Assay results from patent US11504382B2, “Tricyclic inhibitors of Hepatitis B virus” (Antios Therapeutics, Inc., priority 2018, dated 2022).
Like-named read-outs stand apart in the source and are kept apart here.

Tested on: HBV
Experiment: HBV inhibition assay in HepAD38 cells (extracellular HBV DNA by direct qPCR)
Assay type: cell-based, Hepatitis B virus
Conditions: 96 hours; for EC50: 8-point dose-response curve, read-out: HBV inh EC50

Row | SMILES | EC50 (Hepatitis B virus) [nM] | other results
1 | CCOC(=O)N1CC2COc3c(cn(C)c3C(=O)Nc3ccc(F)c(C#N)c3)S(=O)(=O)NC2C1 (single isomer, unassigned) [Example E45, Ethyl 8-((3-cyano-4-fluorophenyl)carbamoyl)-7-methyl-3a,4,10,10a-tetrahydro-1H,7H-dipyrrolo[3,4-b:3′,4′-f][1,4,5]oxathiazocine-2(3H)-carboxylate 5,5-dioxide (Chiral 3aS,10aS or 3aR,10aR - Stereochemistry unknown)] | – | Anti HBV Activity (conc μM) (0.05 μM, relative to non-treated reference): A (0.05) (HBV inhibition greater than 50% at the concentration indicated in the table)
2 | Cc1cc(NC(=O)c2c3c(cn2C)S(=O)(=O)NC2CN(C(=O)C4(C)COC4)CC2CO3)ccc1F (stereo not drawn) [Example E149, Trans-N-(4-fluoro-3-methylphenyl)-7-methyl-2-(3-methyloxetane-3-carbonyl)-2,3,3a,4,10,10a-hexahydro-1H,7H-dipyrrolo[3,4-b:3′,4′-f][1,4,5]oxathiazocine-8-carboxamide 5,5-dioxide] | – | EC50: < 1000 nM
3 | Cn1cc2c(c1C(=O)Nc1ccc(F)c(F)c1)NCC1CCCCN1S2(=O)=O (stereo not shown) [Example E2, N-(3,4-difluorophenyl)-2-methyl-2,6,7,8,9,9a,10,11-octahydropyrido[1,2-b]pyrrolo[3,4-f][1,2,5]thiadiazepine-1-carboxamide 4,4-dioxide] | – | inhibition at 1 µM (Hepatitis B virus, 1 μM, relative to non-treated reference, read-out: Anti HBV Activity (conc μM)): < 50%
4 | CCOC(=O)N1C[C@H]2CSc3c(cn(C)c3C(=O)Nc3ccc(F)c(C)c3)S(=O)(=O)N[C@H]2C1 [Example E121, Ethyl (3aR,10aR)-8-((4-fluoro-3-methylphenyl)carbamoyl)-7-methyl-3a,4,10,10a-tetrahydro-1H,7H-dipyrrolo[3,4-c:3′,4′-g][1,6,2]dithiazocine-2(3H)-carboxylate 5,5-dioxide] | < 1000 | –
5 | Cc1nnc(N2C[C@H]3COc4c(cn(C)c4C(=O)Nc4ccc(F)c(C)c4)S(=O)(=O)N[C@H]3C2)o1 [Example E118, (3aR,10aR)—N-(4-fluoro-3-methylphenyl)-7-methyl-2-(5-methyl-1,3,4-oxadiazol-2-yl)-2,3,3a,4,10,10a-hexahydro-1H,7H-dipyrrolo[3,4-b:3′,4′-f][1,4,5]oxathiazocine-8-carboxamide 5,5-dioxide] | < 1000 | –
6 | CCOC(=O)N1CC2COc3c(cn(C)c3C(=O)Nc3ccc(F)c(C(F)F)c3)S(=O)(=O)NC2C1 (single isomer, unassigned) [Example E44, Ethyl 8-((3-(difluoromethyl)-4-fluorophenyl)carbamoyl)-7-methyl-3a,4,10,10a-tetrahydro-1H,7H-dipyrrolo[3,4-b:3′,4′-f][1,4,5]oxathiazocine-2(3H)-carboxylate 5,5-dioxide (Chiral 3aS,10aS or 3aR,10aR - Stereochemistry unknown)] | – | Anti HBV Activity (conc μM) (0.1 μM, relative to non-treated reference): B (0.1) (HBV inhibition less than 50% at the concentration indicated in the table)
7 | Cn1cc2c(c1C(=O)Nc1ccc(F)c(F)c1)OCC1CCCC1NS2(=O)=O (racemic) [Example E6, cis-N-(3,4-difluorophenyl)-2-methyl-5a,6,7,8,8a,9-hexahydro-2H,5H-cyclopenta[f]pyrrolo[3,4-b][1,4,5]oxathiazocine-1-carboxamide 4,4-dioxide] | < 1000 | inhibition at 0.5 µM (Hepatitis B virus, 0.5 μM, relative to non-treated reference, read-out: Anti HBV Activity (conc μM)): > 50%
8 | Cc1cc(NC(=O)c2c3c(cn2C)S(=O)(=O)NC2CN(C(=O)c4nonc4N)CC2CO3)ccc1F (stereo not drawn) [Example E61, cis-2-(4-amino-1,2,5-oxadiazole-3-carbonyl)-N-(4-fluoro-3-methylphenyl)-7-methyl-2,3,3a,4,10,10a-hexahydro-1H,7H-dipyrrolo[3,4-b:3′,4′-f][1,4,5]oxathiazocine-8-carboxamide 5,5-dioxide] | < 1000 | –
9 | Cc1nnc(C(=O)N2CC[C@H]3COc4c(cn(C)c4C(=O)Nc4ccc(F)c(C)c4)S(=O)(=O)N[C@@H]3C2)o1 (relative stereo) [Example E140, Trans-N-(4-fluoro-3-methylphenyl)-2-methyl-7-(5-methyl-1,3,4-oxadiazole-2-carbonyl)-5,5a,6,7,8,9,9a,10-octahydro-2H-pyrido[3,4-f]pyrrolo[3,4-b][1,4,5]oxathiazocine-1-carboxamide 4,4-dioxide] | < 1000 | –
